Values joined by “and” are separate entries in the source; they are usually repeats but may differ in a detail not shown here. Equal values may be shown once.
Assays:
[1] = biological target: T1, Alpha-2A adrenergic receptor [16-465] (Rattus norvegicus, UniProt P22909)
T1 construct: 16-465
T1 sequence (P22909 whole entry): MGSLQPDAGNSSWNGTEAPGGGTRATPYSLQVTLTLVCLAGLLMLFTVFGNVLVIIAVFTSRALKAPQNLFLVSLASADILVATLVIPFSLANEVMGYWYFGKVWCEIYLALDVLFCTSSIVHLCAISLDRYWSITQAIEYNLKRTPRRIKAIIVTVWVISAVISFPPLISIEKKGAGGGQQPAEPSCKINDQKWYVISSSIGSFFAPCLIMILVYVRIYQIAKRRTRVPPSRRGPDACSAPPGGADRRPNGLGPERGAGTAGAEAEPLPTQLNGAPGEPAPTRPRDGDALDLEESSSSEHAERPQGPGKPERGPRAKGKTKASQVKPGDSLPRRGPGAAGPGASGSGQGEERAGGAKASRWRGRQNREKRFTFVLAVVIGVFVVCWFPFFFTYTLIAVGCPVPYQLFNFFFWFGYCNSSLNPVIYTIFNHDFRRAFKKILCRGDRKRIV

[2] = biological target: 5-hydroxytryptamine receptor 2A (Rattus norvegicus, UniProt P14842)
[3] = biological target: T2, Alpha-1B adrenergic receptor (Rattus norvegicus, UniProt P15823)
T2 sequence (P15823 whole entry): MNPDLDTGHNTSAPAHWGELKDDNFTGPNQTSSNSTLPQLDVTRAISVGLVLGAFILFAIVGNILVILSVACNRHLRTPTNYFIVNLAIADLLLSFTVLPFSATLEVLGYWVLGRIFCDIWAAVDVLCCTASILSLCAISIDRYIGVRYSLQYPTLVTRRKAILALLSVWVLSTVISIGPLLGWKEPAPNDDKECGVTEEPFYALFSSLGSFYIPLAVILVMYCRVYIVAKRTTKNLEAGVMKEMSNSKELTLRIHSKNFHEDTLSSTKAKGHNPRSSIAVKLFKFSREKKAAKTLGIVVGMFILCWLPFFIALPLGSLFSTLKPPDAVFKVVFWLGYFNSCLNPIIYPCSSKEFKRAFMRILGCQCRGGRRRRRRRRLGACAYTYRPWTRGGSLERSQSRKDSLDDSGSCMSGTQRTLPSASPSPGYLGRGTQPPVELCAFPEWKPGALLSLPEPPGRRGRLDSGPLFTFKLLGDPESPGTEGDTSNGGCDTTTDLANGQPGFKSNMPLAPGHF

[4] = biological target: Sigma non-opioid intracellular receptor 1 (Cavia porcellus, UniProt Q60492)
[5] = biological target: Beta-1 adrenergic receptor (Rattus norvegicus, UniProt P18090)
[6] = biological target: T3, Alpha-1A adrenergic receptor (Rattus norvegicus, UniProt P43140)
T3 sequence (P43140 whole entry): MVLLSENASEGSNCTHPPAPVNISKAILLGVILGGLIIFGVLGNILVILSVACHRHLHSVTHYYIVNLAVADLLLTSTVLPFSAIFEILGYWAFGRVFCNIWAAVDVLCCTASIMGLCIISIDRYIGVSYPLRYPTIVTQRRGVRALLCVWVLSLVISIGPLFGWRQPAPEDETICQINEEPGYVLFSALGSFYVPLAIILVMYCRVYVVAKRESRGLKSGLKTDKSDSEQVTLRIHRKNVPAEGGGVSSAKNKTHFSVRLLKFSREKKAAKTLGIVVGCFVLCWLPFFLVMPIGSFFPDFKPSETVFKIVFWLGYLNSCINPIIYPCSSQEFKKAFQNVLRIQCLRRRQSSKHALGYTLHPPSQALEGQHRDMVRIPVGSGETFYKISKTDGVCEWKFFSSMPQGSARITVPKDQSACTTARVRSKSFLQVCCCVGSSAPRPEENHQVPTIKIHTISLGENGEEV

[7] = biological target: T4, 5-hydroxytryptamine receptor 2C (Rattus norvegicus, UniProt P08909)
T4 sequence (P08909 whole entry): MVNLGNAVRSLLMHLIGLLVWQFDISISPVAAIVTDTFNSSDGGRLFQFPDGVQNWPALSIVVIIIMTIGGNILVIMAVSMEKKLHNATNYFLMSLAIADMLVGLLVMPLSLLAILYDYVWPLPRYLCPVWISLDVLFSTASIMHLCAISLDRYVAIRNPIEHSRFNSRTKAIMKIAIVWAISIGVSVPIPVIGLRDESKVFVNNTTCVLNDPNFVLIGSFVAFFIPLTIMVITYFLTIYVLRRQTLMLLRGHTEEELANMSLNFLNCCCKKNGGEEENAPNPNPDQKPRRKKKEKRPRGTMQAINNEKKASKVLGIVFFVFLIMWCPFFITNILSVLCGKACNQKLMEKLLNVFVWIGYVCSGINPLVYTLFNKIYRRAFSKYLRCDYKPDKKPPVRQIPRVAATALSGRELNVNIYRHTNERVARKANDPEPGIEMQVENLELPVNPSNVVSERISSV

[8] = biological target: T5, 5-hydroxytryptamine receptor 3A (Rattus norvegicus, UniProt P35563)
T5 sequence (P35563 whole entry): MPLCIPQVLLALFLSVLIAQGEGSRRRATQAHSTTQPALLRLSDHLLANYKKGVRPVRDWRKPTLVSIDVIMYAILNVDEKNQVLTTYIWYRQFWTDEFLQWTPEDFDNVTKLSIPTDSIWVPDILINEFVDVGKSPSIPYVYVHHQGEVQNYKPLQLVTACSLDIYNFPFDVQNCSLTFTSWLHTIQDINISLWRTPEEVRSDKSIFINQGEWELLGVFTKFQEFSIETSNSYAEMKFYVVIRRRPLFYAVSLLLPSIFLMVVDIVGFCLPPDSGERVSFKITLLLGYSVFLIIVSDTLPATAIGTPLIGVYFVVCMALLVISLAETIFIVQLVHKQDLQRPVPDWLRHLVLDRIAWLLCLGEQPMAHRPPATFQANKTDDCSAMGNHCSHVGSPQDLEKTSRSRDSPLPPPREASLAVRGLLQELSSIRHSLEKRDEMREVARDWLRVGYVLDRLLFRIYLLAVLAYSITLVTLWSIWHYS

[9] = biological target: 5-hydroxytryptamine receptor 4 (Cavia porcellus, UniProt O70528)
[10] = biological target: T6, Alpha-2B adrenergic receptor (Rattus norvegicus, UniProt P19328)
T6 sequence (P19328 whole entry): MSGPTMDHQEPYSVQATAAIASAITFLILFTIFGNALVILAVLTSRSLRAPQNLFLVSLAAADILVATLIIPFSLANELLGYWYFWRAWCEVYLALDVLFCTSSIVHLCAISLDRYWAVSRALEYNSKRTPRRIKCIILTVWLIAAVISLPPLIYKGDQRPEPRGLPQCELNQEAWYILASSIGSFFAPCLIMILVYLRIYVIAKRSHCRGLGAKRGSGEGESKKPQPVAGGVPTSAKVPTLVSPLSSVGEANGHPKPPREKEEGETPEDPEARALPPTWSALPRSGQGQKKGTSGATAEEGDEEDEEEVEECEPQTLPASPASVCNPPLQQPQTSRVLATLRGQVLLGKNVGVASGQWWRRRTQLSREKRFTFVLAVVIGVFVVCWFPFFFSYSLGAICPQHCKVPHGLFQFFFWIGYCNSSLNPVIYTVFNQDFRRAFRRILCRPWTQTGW

[11] = biological target: T7, Muscarinic acetylcholine receptor M2 (Rattus norvegicus, UniProt P10980)
T7 sequence (P10980 whole entry): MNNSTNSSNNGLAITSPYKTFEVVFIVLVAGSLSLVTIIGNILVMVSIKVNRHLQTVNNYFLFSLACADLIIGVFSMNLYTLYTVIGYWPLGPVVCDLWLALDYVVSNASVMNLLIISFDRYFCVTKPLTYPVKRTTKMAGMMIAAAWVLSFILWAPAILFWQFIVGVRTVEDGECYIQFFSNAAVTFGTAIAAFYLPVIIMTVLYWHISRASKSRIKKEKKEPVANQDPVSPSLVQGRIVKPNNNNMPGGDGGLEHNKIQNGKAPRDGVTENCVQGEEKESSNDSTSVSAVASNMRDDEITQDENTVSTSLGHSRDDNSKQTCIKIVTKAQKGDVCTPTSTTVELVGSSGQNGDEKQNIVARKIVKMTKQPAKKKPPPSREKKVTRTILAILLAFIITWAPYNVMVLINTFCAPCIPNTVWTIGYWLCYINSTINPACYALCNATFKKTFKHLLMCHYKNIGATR

[12] = biological target: T8, Muscarinic acetylcholine receptor M1 (Rattus norvegicus, UniProt P08482)
T8 sequence (P08482 whole entry): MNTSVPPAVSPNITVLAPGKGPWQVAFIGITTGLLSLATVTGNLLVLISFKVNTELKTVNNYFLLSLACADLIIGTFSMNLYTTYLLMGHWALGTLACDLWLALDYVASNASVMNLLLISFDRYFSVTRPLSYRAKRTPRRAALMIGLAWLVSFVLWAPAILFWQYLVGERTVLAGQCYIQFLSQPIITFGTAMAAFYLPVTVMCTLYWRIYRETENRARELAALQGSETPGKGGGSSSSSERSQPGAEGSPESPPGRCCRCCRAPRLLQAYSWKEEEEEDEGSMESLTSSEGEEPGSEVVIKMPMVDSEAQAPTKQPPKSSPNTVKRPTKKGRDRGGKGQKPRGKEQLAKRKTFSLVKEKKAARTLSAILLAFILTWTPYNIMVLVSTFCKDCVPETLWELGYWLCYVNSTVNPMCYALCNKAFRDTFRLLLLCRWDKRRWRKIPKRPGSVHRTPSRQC

D(1A) dopamine receptor = D(1A) dopamine receptor (Macaca mulatta, UniProt O77680)
D(2) dopamine receptor = D(2) dopamine receptor (Sus scrofa, UniProt F1SM69)
[13] = biological target: Beta-2 adrenergic receptor (Rattus norvegicus, UniProt P10608)
[14] = biological target: T9, 5-hydroxytryptamine receptor 1A (Rattus norvegicus, UniProt P19327)
T9 sequence (P19327 whole entry): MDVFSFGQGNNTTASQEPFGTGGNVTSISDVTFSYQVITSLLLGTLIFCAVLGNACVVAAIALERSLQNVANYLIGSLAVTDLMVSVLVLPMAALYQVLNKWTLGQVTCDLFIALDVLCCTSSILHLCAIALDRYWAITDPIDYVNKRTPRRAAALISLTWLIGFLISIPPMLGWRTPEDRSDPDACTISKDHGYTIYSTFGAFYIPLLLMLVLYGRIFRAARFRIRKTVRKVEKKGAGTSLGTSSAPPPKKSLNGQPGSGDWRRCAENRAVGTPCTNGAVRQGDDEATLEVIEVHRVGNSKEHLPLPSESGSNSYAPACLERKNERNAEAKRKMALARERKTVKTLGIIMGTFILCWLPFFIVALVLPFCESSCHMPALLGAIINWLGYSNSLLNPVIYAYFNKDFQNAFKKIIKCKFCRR

Chain of Sigma non-opioid intracellular receptor 1 (Q60492 whole entry): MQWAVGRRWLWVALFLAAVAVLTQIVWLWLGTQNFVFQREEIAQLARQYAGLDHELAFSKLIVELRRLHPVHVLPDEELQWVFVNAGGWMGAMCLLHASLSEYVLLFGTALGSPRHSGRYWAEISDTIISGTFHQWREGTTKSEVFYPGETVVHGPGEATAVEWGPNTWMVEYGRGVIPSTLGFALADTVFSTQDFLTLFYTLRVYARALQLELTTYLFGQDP
Chain of Beta-2 adrenergic receptor (P10608 whole entry): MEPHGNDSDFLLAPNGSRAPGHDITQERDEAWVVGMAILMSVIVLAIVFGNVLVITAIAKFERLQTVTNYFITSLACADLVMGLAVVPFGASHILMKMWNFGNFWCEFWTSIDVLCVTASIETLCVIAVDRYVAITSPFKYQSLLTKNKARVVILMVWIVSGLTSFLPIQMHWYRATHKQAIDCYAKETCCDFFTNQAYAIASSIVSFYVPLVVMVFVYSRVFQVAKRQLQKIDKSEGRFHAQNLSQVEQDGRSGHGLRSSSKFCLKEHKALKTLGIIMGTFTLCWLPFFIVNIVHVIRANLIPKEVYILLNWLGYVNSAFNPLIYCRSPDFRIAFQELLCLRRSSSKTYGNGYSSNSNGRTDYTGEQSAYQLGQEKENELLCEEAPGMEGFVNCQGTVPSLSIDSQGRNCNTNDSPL
Chain of 5-hydroxytryptamine receptor 2A (P14842 whole entry): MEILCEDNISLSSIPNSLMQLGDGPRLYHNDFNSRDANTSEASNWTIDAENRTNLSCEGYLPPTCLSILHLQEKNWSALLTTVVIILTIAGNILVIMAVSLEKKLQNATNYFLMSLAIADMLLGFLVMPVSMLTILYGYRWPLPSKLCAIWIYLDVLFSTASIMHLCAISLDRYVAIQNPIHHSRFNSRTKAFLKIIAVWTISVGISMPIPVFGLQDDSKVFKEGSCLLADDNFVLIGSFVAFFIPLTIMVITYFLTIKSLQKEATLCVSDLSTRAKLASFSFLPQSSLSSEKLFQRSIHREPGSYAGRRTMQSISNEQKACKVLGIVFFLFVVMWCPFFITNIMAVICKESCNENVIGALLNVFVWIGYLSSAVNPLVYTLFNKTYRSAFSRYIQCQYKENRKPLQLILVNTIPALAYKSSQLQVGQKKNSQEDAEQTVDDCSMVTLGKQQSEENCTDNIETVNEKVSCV
Chain of D(2) dopamine receptor (F1SM69 whole entry): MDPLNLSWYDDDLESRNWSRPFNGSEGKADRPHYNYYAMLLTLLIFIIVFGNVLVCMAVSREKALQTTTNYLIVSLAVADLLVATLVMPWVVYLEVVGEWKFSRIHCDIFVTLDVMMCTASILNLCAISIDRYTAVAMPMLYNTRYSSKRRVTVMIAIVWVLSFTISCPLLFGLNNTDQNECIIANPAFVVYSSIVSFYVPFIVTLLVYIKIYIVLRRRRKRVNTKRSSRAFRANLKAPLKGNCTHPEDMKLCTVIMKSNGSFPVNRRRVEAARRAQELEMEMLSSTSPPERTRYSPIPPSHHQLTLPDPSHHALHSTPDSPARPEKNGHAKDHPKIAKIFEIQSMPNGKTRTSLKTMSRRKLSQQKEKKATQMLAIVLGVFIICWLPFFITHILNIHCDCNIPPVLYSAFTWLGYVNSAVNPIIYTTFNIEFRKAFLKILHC
Chain of D(1A) dopamine receptor (O77680 whole entry): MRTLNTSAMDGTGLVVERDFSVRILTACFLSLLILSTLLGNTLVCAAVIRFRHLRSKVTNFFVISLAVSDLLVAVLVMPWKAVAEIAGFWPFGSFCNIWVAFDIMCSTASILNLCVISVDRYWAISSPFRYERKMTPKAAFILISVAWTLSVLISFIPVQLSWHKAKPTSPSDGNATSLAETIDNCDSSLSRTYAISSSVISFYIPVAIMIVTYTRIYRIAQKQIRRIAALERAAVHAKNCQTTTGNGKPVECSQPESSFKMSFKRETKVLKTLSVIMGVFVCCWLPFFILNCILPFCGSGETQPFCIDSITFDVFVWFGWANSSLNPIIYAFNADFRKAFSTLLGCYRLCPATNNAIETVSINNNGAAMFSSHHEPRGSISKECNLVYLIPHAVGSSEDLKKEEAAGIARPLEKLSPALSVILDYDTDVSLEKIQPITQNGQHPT
Chain of Beta-1 adrenergic receptor (P18090 whole entry): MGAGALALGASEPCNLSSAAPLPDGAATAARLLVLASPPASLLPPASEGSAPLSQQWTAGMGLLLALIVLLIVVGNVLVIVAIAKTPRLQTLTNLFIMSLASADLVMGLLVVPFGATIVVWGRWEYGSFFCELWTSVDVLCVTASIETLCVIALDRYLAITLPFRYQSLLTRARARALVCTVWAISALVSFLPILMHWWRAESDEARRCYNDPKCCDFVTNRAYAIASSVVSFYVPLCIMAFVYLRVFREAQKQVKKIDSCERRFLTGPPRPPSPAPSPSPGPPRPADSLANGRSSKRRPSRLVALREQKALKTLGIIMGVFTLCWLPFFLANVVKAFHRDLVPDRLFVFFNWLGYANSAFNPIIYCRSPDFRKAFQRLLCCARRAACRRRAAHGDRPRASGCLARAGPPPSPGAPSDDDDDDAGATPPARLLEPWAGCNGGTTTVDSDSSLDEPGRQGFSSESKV
Chain of 5-hydroxytryptamine receptor 4 (O70528 whole entry): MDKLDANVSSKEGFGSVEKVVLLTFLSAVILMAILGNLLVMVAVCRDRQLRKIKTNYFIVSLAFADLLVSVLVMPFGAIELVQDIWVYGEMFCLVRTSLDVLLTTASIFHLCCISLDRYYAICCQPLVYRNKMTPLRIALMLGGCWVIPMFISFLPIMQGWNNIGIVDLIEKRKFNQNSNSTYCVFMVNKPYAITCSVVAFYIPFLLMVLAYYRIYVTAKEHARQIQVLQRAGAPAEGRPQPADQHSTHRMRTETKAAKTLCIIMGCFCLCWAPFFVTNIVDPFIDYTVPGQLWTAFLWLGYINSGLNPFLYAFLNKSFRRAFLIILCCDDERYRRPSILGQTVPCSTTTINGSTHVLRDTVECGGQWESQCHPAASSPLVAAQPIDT

Compound | Ki [1] [nM] | Ki [2] [nM] | Ki [3] [nM] | Ki [4] | Ki [5] [nM] | Ki [6] [nM] | Ki [7] [nM] | Ki [8] | Ki [9] [nM] | Ki [10] [nM] | Ki [11] [nM] | Ki [12] [nM] | Ki (D(1A) dopamine receptor) [nM] | Ki (D(2) dopamine receptor) [nM] | Ki [13] [nM] | Ki [14] [nM]
CCCCN1CCC(CCC(=O)c2cc(Cl)c(N)cc2OC)CC1 [CAS_183782] | > 10000 | 501 | 1260 | 1.25 nM and 10 nM | > 10000 | 200 | 794 | 398 nM and 1260 nM | 1.99 | > 10000 | 5010 | 6310 | > 10000 | > 10000 | > 10000 | 
COc1cc(N)c(Cl)cc1C(=O)CCC1CCN(CCNS(C)(=O)=O)CC1 [CAS_133075] | > 10000 | 1000 | > 10000 | 12.6 nM and 50.1 nM | > 10000 | 398 | 2000 | 2510 nM and 1260 nM | 1.58 | > 10000 | > 10000 | > 10000 | > 10000 | > 10000 | > 10000 | 2000
